For data set [1], the system named is RhoBAST L2-U1 (L2'-U1; RhoBAST-U1A Loop) (RNA, aptamer) GGAACCUCCGCCCAUUGCACUCCGGGCGGUGAAGGAGAGGCGCAAGGUUAACCGCCUCAGGUUCC
The data set is described as follows: X-ray crystal structure, 2.75 Å. The conditions noted are these: Mg2+; co-crystal with U1A protein.

Data set [2] concerns RhoBAST G35A (RNA, aptamer) GGAACCTCCGCGAAAGCGGUGAAGAAGAGGCGCAAGGUUAACCGCCUCAGGUUCC
The data set is described as follows: ITC. The settings on record: K+ 100 mM; Mg2+ concentration not given; 20 mM Tris-HCl pH 7.5, 25 °C; 100 μM TMR-DN titrated into 10 μM RNA.

The test system of data set [3] is RhoBAST A50U (RNA, aptamer) GGAACCUCCGCGAAAGCGGUGAAGGAGAGGCGCAAGGUUUACCGCCUCAGGUUCC
The data set is described as follows: ITC. The settings on record: K+ 100 mM; Mg2+ concentration not given; 20 mM Tris-HCl pH 7.5, 25 °C, nM inferred from ΔG.

Data set [4] concerns RhoBAST C52G (RNA, aptamer) GGAACCTCCGCGAAAGCGGUGAAGGAGAGGCGCAAGGUUAAGCGCCUCAGGUUCC
The data set is described as follows: ITC. The conditions noted are these: K+ 100 mM; Mg2+ concentration not given; 20 mM Tris-HCl pH 7.5, 25 °C; 100 μM TMR-DN titrated into 10 μM RNA.

Data set [5] deals with RhoBAST G37A (RNA, aptamer) GGAACCUCCGCGAAAGCGGUGAAGGAAAGGCGCAAGGUUAACCGCCUCAGGUUCC
The data set is described as follows: ITC. The settings on record: K+ 100 mM; Mg2+ concentration not given; 20 mM Tris-HCl pH 7.5, 25 °C; affinity not prominently reduced.

Data set [6] relates to RhoBAST G35C/C52G (RNA, aptamer) GGAACCTCCGCGAAAGCGGUGAAGCAGAGGCGCAAGGUUAAGCGCCUCAGGUUCC
The data set is described as follows: ITC. The conditions noted are these: K+ 100 mM; Mg2+ concentration not given; 20 mM Tris-HCl pH 7.5, 25 °C; 100 μM TMR-DN titrated into 10 μM RNA.

The subject of data set [7] is RhoBAST ∆U7 (RNA, aptamer) GGAACCCCGCGAAAGCGGUGAAGGAGAGGCGCAAGGUUAACCGCCUCAGGUUCC
The data set is described as follows: ITC. The settings on record: K+ 100 mM; Mg2+ concentration not given; 20 mM Tris-HCl pH 7.5, 25 °C; affinity not prominently reduced.

Data set [8] relates to RhoBAST WT (RNA, aptamer) GGAACCUCCGCGAAAGCGGUGAAGGAGAGGCGCAAGGUUAACCGCCUCAGGUUCC
The data set is described as follows: ITC. The conditions noted are these: K+ 100 mM, Mg2+ 0.5 mM; 20 mM Tris-HCl pH 7.5, 25 °C; no binding observed without Mg2+.

The test system of data set [9] is RhoBAST G46A (RNA, aptamer) GGAACCUCCGCGAAAGCGGUGAAGGAGAGGCGCAAAGUUAACCGCCUCAGGUUCC
The data set is described as follows: ITC. The settings on record: K+ 100 mM; Mg2+ concentration not given; 20 mM Tris-HCl pH 7.5, 25 °C; 6.2 x K of WT.

In data set [10] the test system is RhoBAST L3'-U1 (RNA, aptamer) GGAACCUCCGCGAAAGCGGUGAAGGAGAGGCCAUUGCACUCCGGCCUCAGGUUCC
The data set is described as follows: binding assay in Supplementary Fig. 1b.

Data set [11] deals with RhoBAST U48C (RNA, aptamer) GGAACCUCCGCGAAAGCGGUGAAGGAGAGGCGCAAGGCUAACCGCCUCAGGUUCC
The data set is described as follows: ITC. The conditions noted are these: K+ 100 mM; Mg2+ concentration not given; 20 mM Tris-HCl pH 7.5, 25 °C; 1.3 x K of WT.

The test system of data set [12] is RhoBAST G47C (RNA, aptamer) GGAACCUCCGCGAAAGCGGUGAAGGAGAGGCGCAAGCUUAACCGCCUCAGGUUCC
The data set is described as follows: ITC. The conditions noted are these: K+ 100 mM; Mg2+ concentration not given; 20 mM Tris-HCl pH 7.5, 25 °C; 100 μM TMR-DN titrated into 10 μM RNA.

Data set [13] relates to RhoBAST A33G (RNA, aptamer) GGAACCUCCGCGAAAGCGGUGAGGGAGAGGCGCAAGGUUAACCGCCUCAGGUUCC
The data set is described as follows: ITC. The settings on record: K+ 100 mM; Mg2+ concentration not given; 20 mM Tris-HCl pH 7.5, 25 °C; similar to WT.

Data set [14] concerns RhoBAST U30C/A36C (RNA, aptamer) GGAACCUCCGCGAAAGCGGCGAAGGCGAGGCGCAAGGUUAACCGCCUCAGGUUCC
The data set is described as follows: ITC. The conditions noted are these: K+ 100 mM; Mg2+ concentration not given; 20 mM Tris-HCl pH 7.5, 25 °C; 28 x K of WT.

In data set [15] the test system is RhoBAST C52A (RNA, aptamer) GGAACCTCCGCGAAAGCGGUGAAGGAGAGGCGCAAGGUUAAACGCCUCAGGUUCC
The data set is described as follows: ITC. The settings on record: K+ 100 mM; Mg2+ concentration not given; 20 mM Tris-HCl pH 7.5, 25 °C; 46 x K of WT.

In data set [16] the test system is RhoBAST G47A (RNA, aptamer) GGAACCUCCGCGAAAGCGGUGAAGGAGAGGCGCAAGAUUAACCGCCUCAGGUUCC
The data set is described as follows: ITC. The settings on record: K+ 100 mM; Mg2+ concentration not given; 20 mM Tris-HCl pH 7.5, 25 °C; 26.8 x K of WT.

The subject of data set [17] is RhoBAST U49A (RNA, aptamer) GGAACCUCCGCGAAAGCGGUGAAGGAGAGGCGCAAGGUAAACCGCCUCAGGUUCC
The data set is described as follows: ITC. The settings on record: K+ 100 mM; Mg2+ concentration not given; 20 mM Tris-HCl pH 7.5, 25 °C; 100 x K of WT.

Data set [18] has as its system RhoBAST G31C (RNA, aptamer) GGAACCTCCGCGAAAGCGGUCAAGGAGAGGCGCAAGGUUAACCGCCUCAGGUUCC
The data set is described as follows: ITC. The settings on record: K+ 100 mM; Mg2+ concentration not given; 20 mM Tris-HCl pH 7.5, 25 °C; 100 μM TMR-DN titrated into 10 μM RNA.

For data set [19], the system named is RhoBAST L2-U1 (L2'-U1; RhoBAST-U1A Loop) (RNA, aptamer) GGAACCUCCGCCCAUUGCACUCCGGGCGGUGAAGGAGAGGCGCAAGGUUAACCGCCUCAGGUUCC
The data set is described as follows: binding assay in Supplementary Fig. 1b. The conditions noted are these: K+ 100 mM, Mg2+ 10 mM assumed; 20 mM Tris-HCl pH 7.5, 25 °C, nM inferred from ΔG high affinity as wild type.

The test system of data set [20] is RhoBAST A33C (RNA, aptamer) GGAACCUCCGCGAAAGCGGUGACGGAGAGGCGCAAGGUUAACCGCCUCAGGUUCC
The data set is described as follows: ITC. The conditions noted are these: K+ 100 mM; Mg2+ concentration not given; 20 mM Tris-HCl pH 7.5, 25 °C; similar to WT.

Data set [21] deals with RhoBAST A36U (RNA, aptamer) GGAACCUCCGCGAAAGCGGUGAAGGUGAGGCGCAAGGUUAACCGCCUCAGGUUCC
The data set is described as follows: ITC. The conditions noted are these: K+ 100 mM; Mg2+ concentration not given; 20 mM Tris-HCl pH 7.5, 25 °C; 3.5 x K of WT.

The subject of data set [22] is RhoBAST C8G (RNA, aptamer) GGAACCUGCGCGAAAGCGGUGAAGGAGAGGCGCAAGGUUAACCGCCUCAGGUUCC
The data set is described as follows: ITC. The settings on record: K+ 100 mM; Mg2+ concentration not given; 20 mM Tris-HCl pH 7.5, 25 °C; affinity not prominently reduced.

Data set [23] concerns RhoBAST A51U (RNA, aptamer) GGAACCUCCGCGAAAGCGGUGAAGGAGAGGCGCAAGGUUAUCCGCCUCAGGUUCC
The data set is described as follows: ITC. The settings on record: K+ 100 mM; Mg2+ concentration not given; 20 mM Tris-HCl pH 7.5, 25 °C, nM inferred from ΔG.

Data set [24] concerns RhoBAST A36C (RNA, aptamer) GGAACCUCCGCGAAAGCGGUGAAGGCGAGGCGCAAGGUUAACCGCCUCAGGUUCC
The data set is described as follows: ITC. The conditions noted are these: K+ 100 mM; Mg2+ concentration not given; 20 mM Tris-HCl pH 7.5, 25 °C; 40 x K of WT.

Data set [25] deals with U1A (U1 RNA-binding protein, co-crystallization chaperone) (human, UniProt P09012 1-102). The data set is described as follows: ITC; TMR-DN presence in this assay not stated; ITC: 20 mM Tris-HCl pH 7.5, 100 mM KCl, 0-10 mM MgCl2, 25 C (described for RNA-fluorophore titrations; U1A conditions not separately given). The settings on record: protein: recombinant; four-way junction; U1A hairpin loop. (In general: ITC needs no label: the signal is the heat of the interaction.)
Sequence of U1A (U1 RNA-binding protein, co-crystallization chaperone) (P09012 1-102): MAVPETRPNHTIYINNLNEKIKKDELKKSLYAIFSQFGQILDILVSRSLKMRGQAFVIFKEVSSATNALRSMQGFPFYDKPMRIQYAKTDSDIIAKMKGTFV

Broadly, the KD is the concentration at which binding is half-saturated. High values mean lower affinity, low ones higher affinity. In the case of `CN(C)c1ccc2c(-c3ccc(C(=O)NCCOCCOCCNc4ccc([N+](=O)[O-])cc4[N+](=O)[O-])cc3C(=O)[O-])c3ccc(=[N+](C)C)cc-3oc2c1`, the binding entry is reported as “yes” in data set [1]; “no” in [2]; “no” in data set [4]; “no” in data set [6]; “no” in data set [10]; “no” in data set [12]. For the same molecule, the binding result in [18] is “no”. For the same molecule, the KD was 3590 nM in [3]; 83 nM in data set [5]; 56.9 nM in data set [7]; ~ 24 nM in [8]; 217 nM in [9]; 45.5 nM in [11]. The KD in data set [13] is listed as 35.1 nM; in [14], 976 nM; in data set [15] it was 1600 nM; in data set [16], 931 nM; in data set [17], 3510 nM; in data set [19] it was 35.5 ± 5.69 nM. Further, the dissociation constant (KD) in [20] is reported as 65.5 nM; in data set [21], 122 nM; in data set [22], 47 nM; in data set [23], 1060 nM; in data set [24], 1400 nM.

B1: RhoBAST-U1A Loop (L2'-U1) (structured_RNA)
RNA: GGAACCUCCGCCCAUUGCACUCCGGGCGGUGAAGGAGAGGCGCAAGGUUAACCGCCUCAGGUUCC
What is called Kd is a measure of binding affinity in units of concentration. With B1, the Kd in data set [25] is 7.94 ± 1.74 nM.

The record behind these values is publication PMC11101630.
